Source: patent publication US8163778B2 (Hoffmann-LA Roche Inc., priority 2007, dated 2012)

The compounds below were run against T1, human liver FBPase (Homo sapiens, UniProt P09467) (assay: FBPase assay (malachite green phosphate release)). Conditions: recombinant human liver FBPase, 50 μM fructose-1,6-bisphosphate.
T1 construct: made in house; host or cells: E. coli
T1 sequence (P09467 2-338 limits assumed): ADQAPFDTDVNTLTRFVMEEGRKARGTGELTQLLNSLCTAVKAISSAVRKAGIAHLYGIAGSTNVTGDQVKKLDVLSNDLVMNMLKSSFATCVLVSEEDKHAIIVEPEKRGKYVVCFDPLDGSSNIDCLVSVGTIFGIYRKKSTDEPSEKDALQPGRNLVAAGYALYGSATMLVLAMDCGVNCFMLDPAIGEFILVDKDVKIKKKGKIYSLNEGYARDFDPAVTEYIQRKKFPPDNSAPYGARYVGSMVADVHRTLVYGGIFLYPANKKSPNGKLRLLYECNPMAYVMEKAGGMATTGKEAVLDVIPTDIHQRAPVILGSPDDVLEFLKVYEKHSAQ
Assay type: biochemical
In short: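 Recombinant human liver FBPase (E. coli-expressed, heat-treated, purified) reacted with 50 μM fructose-1,6-bisphosphate in pH 7.2 HEPES, 2 mM MgCl2, 1% DMSO, 50 min at room temperature. Released phosphate quantified with malachite green/ammonium molybdate reagent at 620 nm.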

First: COCCc1sc(S(=O)(=O)NC(=O)Nc2cc(SC)cc(-c3noc(C)n3)n2)cc1C [Compound 117, 5-(2-methoxyethyl)-4-methyl-N-{[6-(5-methyl-1,2,4-oxadiazol-3-yl)-4-(methylthio)pyridin-2-yl]carbamoyl}thiophene-2-sulfonamide]
Second: COCCc1sc(S(=O)(=O)NC(=O)Nc2cc(OC)cc(C(N)=O)n2)cc1C [Compound 119, 6-[({[5-(2-Methoxyethyl)-4-methyl-2-thienyl]sulfonyl}carbamoyl)amino]-4-(methoxy)pyridine-2-carboxamide]
The IC50 of the first is 2.9-fold lower: 1.63 µM for the first, 4.8 µM for the second.

Going from COCCc1sc(S(=O)(=O)NC(=O)Nc2cc(OC)cc(C(=O)OC)n2)cc1C [Compound 118, Methyl-6-[({[5-(2-methoxyethyl)-4-methyl-2-thienyl]sulfonyl}carbamoyl)amino]-4-(methoxy)pyridine-2-carboxylate] to Cc1cc(C(F)(F)F)cc(NC(=O)NS(=O)(=O)c2ccc(C)s2)n1 [Compound 121, 5-Methyl-N-{[6-methyl-4-(trifluoromethyl)pyridin-2-yl]carbamoyl}thiophene-2-sulfonamide], the IC50 falls from 2.3 µM to 1.17 µM (2-fold).

Cc1cc(C(F)(F)F)cc(NC(=O)NS(=O)(=O)c2csc(C)c2)n1 [Compound 120, 5-Methyl-N-{[6-methyl-4-(trifluoromethyl)pyridin-2-yl]carbamoyl}thiophene-3-sulfonamide] and Cc1csc(S(=O)(=O)NC(=O)Nc2cc(C(F)(F)F)cc(C)n2)c1 [Compound 122, 4-Methyl-N-{[6-methyl-4-(trifluoromethyl)pyridin-2-yl]carbamoyl}thiophene-2-sulfonamide] are within 1.5-fold of each other in IC50: 0.831 µM for the first, 0.73 µM for the second.
